{"source": "patent US5248221A", "about": "“Antifouling coating composition comprising lactone compounds, method for protecting aquatic structures, and articles protected against fouling organisms” (Rohm and Haas Company, priority 1992, dated 1993)", "key": {"[1]": {"system": "cyprid larvae of the barnacle Balanus amphitrite", "experiment": "Settlement assay for cyprid-stage barnacle larvae (% settlement)", "quoted_text": "All compounds were tested for their ability to inhibit settlement by cyprid larvae of the barnacle Balanus amphitrite . […] Controls consisted of barnacle larvae and filtered seawater added to the dishes or vials without test compound. Dishes were then incubated for 20-24 hrs at 28° C. with light for approximately 15 hours and in darkness for approximately 9 hours. The dishes or vials were then removed from the incubator, examined under a dissecting microscope to determine whether larvae were living or dead. Larvae were then killed by addition of several drops of 10% formalin solution. Settlement rate was quantified as number of larvae that had attached to the dish or vial surface, expressed as a percentage of total larvae in the dish or vial. Experiments were performed in duplicate.\nA number of lactones were tested for control of barnacle settlement. All lactones were tested at a concentration of 3×10^-6 M in dishes containing seawater. The larvae were added and the test conducted as described above.\nFive ml of each solution were added to duplicate dishes. The larvae were then added to the dishes and the test conducted as described above.\nAliquots of these solutions were taken and added to duplicate dishes. […] The larvae were then added to the dishes and the test conducted as described above.\nA series of solutions of a-angelica lactone in seawater at concentrations ranging from 500 μg/ml to 5 ng/ml were prepared. Aliquots of these solutions were taken and added to duplicate dishes. […] The larvae were then added to the dishes and the test conducted as described above.\nA solution of 2-coumaranone (25 μg in 50 ml of filtered, aged seawater) was prepared. The larvae were then added to the dishes and the test conducted as described above.\nA series of solutions of γ-decalactone in seawater at concentrations ranging from 500 μg/ml to 5 pg/ml were prepared. Aliquots of these solutions were taken and added to duplicate dishes. […] The larvae were then added to the dishes and the test conducted as described above.\nA series of solutions of γ-valerolactone in seawater at concentrations ranging from 500 μg/ml to 500 pg/ml were prepared. Aliquots of these solutions were taken and added to duplicate dishes. […] The larvae were then added to the dishes and the test conducted as described above."}, "nauplius stage larvae": {"system": "nauplius stage larvae", "experiment": "whole plant or invertebrate", "settings": "for LC50: Amphibalanus amphitrite, read-out: ED50 (half-maximal inhibition)", "protocol": "Toxicity assays were conducted by adding nauplius stage larvae to 50×5 mm polystyrene Petri dishes or glass vials containing 5 ml of 100 kDa iltered seawater. […] Dishes or vials receiving no test compound served as controls. The dishes or vials were incubated at 28° C. with a 15:9 light:dark cycle. […] The number of living and dead larvae were then counted. Probit analysis was used to obtain concentrations corresponding to half-maximal inhibition (EC50 values)."}, "[2]": {"settings": "Table 1, 3×10^-6 M in seawater, dishes, Control 35"}}, "data": [{"smiles": "CCCCC1CCC(=O)O1", "note": "(stereo not drawn) [γ-octanolactone]", "values": [{"measurement": "% Settlement", "setting": "[1]; [2]", "value": 39, "unit": "%"}]}, {"smiles": "C=C1CCOC1=O", "note": "[α-methylene-γ-butyrolactone]", "values": [{"measurement": "% Settlement", "setting": "[1]; Table 2 (Example 2), 5 ng/ml, Control 62", "value": 61, "unit": "%"}, {"measurement": "% Settlement", "setting": "[1]; Table 2 (Example 2), 50 ng/ml, Control 62", "value": 62, "unit": "%"}, {"measurement": "% Settlement", "setting": "[1]; Table 2 (Example 2), 500 ng/ml, Control 62", "value": 58, "unit": "%"}, {"measurement": "% Settlement", "setting": "[1]; Table 2 (Example 2), 5 μg/ml, Control 62", "value": 36, "unit": "%"}, {"measurement": "% Settlement", "setting": "[1]; Table 2 (Example 2), 50 μg/ml, Control 62", "value": 0, "unit": "%"}, {"measurement": "% Settlement", "setting": "[1]; Table 2 (Example 2), 500 μg/ml, Control 62", "value": 0, "unit": "%"}, {"measurement": "% Settlement", "setting": "[1]; Table 3 (Example 3, second test), 50 ng/ml, Control 66", "value": 49, "unit": "%"}, {"measurement": "% Settlement", "setting": "[1]; Table 3 (Example 3, second test), 500 ng/ml, Control 66", "value": 53, "unit": "%"}, {"measurement": "% Settlement", "setting": "[1]; Table 3 (Example 3, second test), 5 μg/ml, Control 66", "value": 47, "unit": "%"}, {"measurement": "% Settlement", "setting": "[1]; Table 3 (Example 3, second test), 50 μg/ml, Control 66", "value": 29, "unit": "%"}, {"measurement": "% Settlement", "setting": "[1]; Table 3 (Example 3, second test), 500 μg/ml, Control 66", "value": 5, "unit": "%"}]}, {"smiles": "CC1CCC(=O)O1", "note": "(stereo not drawn) [γ-valerolactone]", "values": [{"measurement": "% Settlement", "setting": "[1]; [2]", "value": 26, "unit": "%"}, {"measurement": "% Settlement", "setting": "[1]; Table 8 (Example 8), 500 pg/ml, Control 66", "value": 55, "unit": "%"}, {"measurement": "% Settlement", "setting": "[1]; Table 8 (Example 8), 5 ng/ml, Control 66", "value": 43, "unit": "%"}, {"measurement": "% Settlement", "setting": "[1]; Table 8 (Example 8), 50 ng/ml, Control 66", "value": 42, "unit": "%"}, {"measurement": "% Settlement", "setting": "[1]; Table 8 (Example 8), 500 ng/ml, Control 66", "value": 48, "unit": "%"}, {"measurement": "% Settlement", "setting": "[1]; Table 8 (Example 8), 5 μg/ml, Control 66", "value": 42, "unit": "%"}, {"measurement": "% Settlement", "setting": "[1]; Table 8 (Example 8), 50 μg/ml, Control 66", "value": 37, "unit": "%"}, {"measurement": "% Settlement", "setting": "[1]; Table 8 (Example 8), 500 μg/ml, Control 66", "value": 52, "unit": "%"}]}, {"smiles": "O=C1CCCCCO1", "note": "[ε-caprolactone, reference compound]", "values": [{"measurement": "% Settlement", "setting": "[1]; [2]", "value": 41, "unit": "%"}]}, {"smiles": "CC1=C2[C@H]3OC(=O)[C@@H](C)[C@@H]3CC[C@@]2(C)C=CC1=O", "note": "[α-santonin]", "values": [{"measurement": "LC50", "setting": "nauplius stage larvae", "value": 14, "unit": "µg/mL"}]}, {"smiles": "C=C1C(=O)O[C@@H]2C[C@@]3(C)CCC[C@H](C)C3=C[C@H]12", "note": "[alantolactone]", "values": [{"measurement": "ED50 (half-maximal inhibition)", "setting": "nauplius stage larvae; glass", "value": 500, "unit": "ng/mL"}]}, {"smiles": "O=C1Cc2ccccc2O1", "note": "[2-coumaranone]", "values": [{"measurement": "% Settlement", "setting": "[1]; Table 6 (Example 6), nominal 5 ng/ml, Control 58", "value": 54, "unit": "%"}, {"measurement": "% Settlement", "setting": "[1]; Table 6 (Example 6), nominal 50 ng/ml, Control 58", "value": 61, "unit": "%"}, {"measurement": "% Settlement", "setting": "[1]; Table 6 (Example 6), nominal 500 ng/ml, Control 58", "value": 59, "unit": "%"}, {"measurement": "% Settlement", "setting": "[1]; Table 6 (Example 6), nominal 5 μg/ml, Control 58", "value": 51, "unit": "%"}, {"measurement": "% Settlement", "setting": "[1]; Table 6 (Example 6), nominal 50 μg/ml, Control 58", "value": 64, "unit": "%"}, {"measurement": "% Settlement", "setting": "[1]; Table 6 (Example 6), nominal 500 μg/ml, Control 58", "value": 0, "unit": "%"}]}, {"smiles": "CCCCCCC1CCC(=O)O1", "note": "(stereo not drawn) [γ-decalactone]", "values": [{"measurement": "LC50", "setting": "nauplius stage larvae", "value": 0.004, "unit": "µg/mL"}, {"measurement": "% Settlement", "setting": "[1]; [2]", "value": 3, "unit": "%"}, {"measurement": "% Settlement", "setting": "[1]; Table 7 (Example 7), 5 pg/ml, Control 66", "value": 45, "unit": "%"}, {"measurement": "% Settlement", "setting": "[1]; Table 7 (Example 7), 50 pg/ml, Control 66", "value": 52, "unit": "%"}, {"measurement": "% Settlement", "setting": "[1]; Table 7 (Example 7), 500 pg/ml, Control 66", "value": 44, "unit": "%"}, {"measurement": "% Settlement", "setting": "[1]; Table 7 (Example 7), 5 ng/ml, Control 66", "value": 32, "unit": "%"}, {"measurement": "% Settlement", "setting": "[1]; Table 7 (Example 7), 50 ng/ml, Control 66", "value": 25, "unit": "%"}, {"measurement": "% Settlement", "setting": "[1]; Table 7 (Example 7), 500 ng/ml, Control 66", "value": 8, "unit": "%"}, {"measurement": "% Settlement", "setting": "[1]; Table 7 (Example 7), 5 μg/ml, Control 66", "value": 25, "unit": "%"}, {"measurement": "% Settlement", "setting": "[1]; Table 7 (Example 7), 50 μg/ml, Control 66", "value": 1, "unit": "%"}, {"measurement": "% Settlement", "setting": "[1]; Table 7 (Example 7), 500 μg/ml, Control 66", "value": 0, "unit": "%"}]}, {"smiles": "CCCCCCC1CCCC(=O)O1", "note": "(stereo not drawn) [δ-undecalactone, reference compound]", "values": [{"measurement": "% Settlement", "setting": "[1]; [2]", "value": 40, "unit": "%"}]}, {"smiles": "CC1=CCC(=O)O1", "note": "[α-angelica lactone]", "values": [{"measurement": "LC50", "setting": "nauplius stage larvae", "value": 70, "unit": "µg/mL"}, {"measurement": "% Settlement", "setting": "[1]; Table 4 (Example 4), 5 ng/ml, Control 62", "value": 62, "unit": "%"}, {"measurement": "% Settlement", "setting": "[1]; Table 4 (Example 4), 50 ng/ml, Control 62", "value": 65, "unit": "%"}, {"measurement": "% Settlement", "setting": "[1]; Table 4 (Example 4), 500 ng/ml, Control 62", "value": 60, "unit": "%"}, {"measurement": "% Settlement", "setting": "[1]; Table 4 (Example 4), 5 μg/ml, Control 62", "value": 54, "unit": "%"}, {"measurement": "% Settlement", "setting": "[1]; Table 4 (Example 4), 50 μg/ml, Control 62", "value": 39, "unit": "%"}, {"measurement": "% Settlement", "setting": "[1]; Table 4 (Example 4), 500 μg/ml, Control 62", "value": 0, "unit": "%"}, {"measurement": "% Settlement", "setting": "[1]; Table 5 (Example 5, second test), 5 ng/ml, Control 66", "value": 41, "unit": "%"}, {"measurement": "% Settlement", "setting": "[1]; Table 5 (Example 5, second test), 50 ng/ml, Control 66", "value": 53, "unit": "%"}, {"measurement": "% Settlement", "setting": "[1]; Table 5 (Example 5, second test), 500 ng/ml, Control 66", "value": 33, "unit": "%"}, {"measurement": "% Settlement", "setting": "[1]; Table 5 (Example 5, second test), 5 μg/ml, Control 66", "value": 33, "unit": "%"}, {"measurement": "% Settlement", "setting": "[1]; Table 5 (Example 5, second test), 50 μg/ml, Control 66", "value": 3, "unit": "%"}, {"measurement": "% Settlement", "setting": "[1]; Table 5 (Example 5, second test), 500 μg/ml, Control 66", "value": 0, "unit": "%"}]}]}
